Assay results reported in US20070202158A1, “Methods Of Administering Water-Soluble Prodrugs Of Propofol For Extended Sedation” (MGI GP, Inc., priority 2003, published 2007).

Experiment: Crossover study of plasma bioavailability of propofol in human volunteers after oral or intraduodenal prodrug (Table II)
Assay type: in vivo
Details: for Blood plasma concentration of propofol, Mean / Blood plasma concentration of propofol, Median: human volunteers
From the text: Blood plasma samples were drawn at various time points post administration and frozen until chromatographic analysis of propofol concentrations. Plasma propofol concentrations at various time points after administration are given for both routes of administration in Table II, below: […]

[1] = ID (intraduodenal) 400 mg, 0.0 hr
[2] = ID (intraduodenal) 400 mg, 0.08 hr
[3] = ID (intraduodenal) 400 mg, 0.17 hr
[4] = ID (intraduodenal) 400 mg, 0.33 hr
[5] = ID (intraduodenal) 400 mg, 0.50 hr
[6] = ID (intraduodenal) 400 mg, 0.75 hr
[7] = ID (intraduodenal) 400 mg, 1.0 hr
[8] = ID (intraduodenal) 400 mg, 1.5 hr
[9] = ID (intraduodenal) 400 mg, 2.0 hr
[10] = ID (intraduodenal) 400 mg, 4.0 hr
[11] = ID (intraduodenal) 400 mg, 6.0 hr
[12] = ID (intraduodenal) 400 mg, 9.0 hr

CC(C)c1cccc(C(C)C)c1OCOP(=O)([O-])[O-].[Na+].[Na+] [O-phosphonooxymethyl propofol disodium salt]
Blood plasma concentration of propofol, Mean [1]: 0.0 ng/mL
Blood plasma concentration of propofol, Median [1]: 0.0 ng/mL
Blood plasma concentration of propofol, Mean [2]: 194.1 ng/mL
Blood plasma concentration of propofol, Median [2]: 144.5 ng/mL
Blood plasma concentration of propofol, Mean [3]: 247.6 ng/mL
Blood plasma concentration of propofol, Median [3]: 210.9 ng/mL
Blood plasma concentration of propofol, Mean [4]: 272.0 ng/mL
Blood plasma concentration of propofol, Median [4]: 277.3 ng/mL
Blood plasma concentration of propofol, Mean [5]: 178.6 ng/mL
Blood plasma concentration of propofol, Median [5]: 211.3 ng/mL
Blood plasma concentration of propofol, Mean [6]: 76.5 ng/mL
Blood plasma concentration of propofol, Median [6]: 52.3 ng/mL
Blood plasma concentration of propofol, Mean [7]: 47.7 ng/mL
Blood plasma concentration of propofol, Median [7]: 45.3 ng/mL
Blood plasma concentration of propofol, Mean [8]: 25.4 ng/mL
Blood plasma concentration of propofol, Median [8]: 24.7 ng/mL
Blood plasma concentration of propofol, Mean [9]: 16.4 ng/mL
Blood plasma concentration of propofol, Median [9]: 14.2 ng/mL
Blood plasma concentration of propofol, Mean [10]: 5.0 ng/mL
Blood plasma concentration of propofol, Median [10]: 5.6 ng/mL
Blood plasma concentration of propofol, Mean [11]: 0.0 ng/mL
Blood plasma concentration of propofol, Median [11]: 0.0 ng/mL
Blood plasma concentration of propofol, Mean [12]: 0.0 ng/mL
Blood plasma concentration of propofol, Median [12]: 0.0 ng/mL
Blood plasma concentration of propofol, Mean (Oral 400 mg, 0.0 hr): 0.0 ng/mL
Blood plasma concentration of propofol, Median (Oral 400 mg, 0.0 hr): 0.0 ng/mL
Blood plasma concentration of propofol, Mean (Oral 400 mg, 0.08 hr): 6.6 ng/mL
Blood plasma concentration of propofol, Median (Oral 400 mg, 0.08 hr): 0.0 ng/mL
Blood plasma concentration of propofol, Mean (Oral 400 mg, 0.17 hr): 103.9 ng/mL
Blood plasma concentration of propofol, Median (Oral 400 mg, 0.17 hr): 43.6 ng/mL
Blood plasma concentration of propofol, Mean (Oral 400 mg, 0.33 hr): 197.2 ng/mL
Blood plasma concentration of propofol, Median (Oral 400 mg, 0.33 hr): 153.6 ng/mL
Blood plasma concentration of propofol, Mean (Oral 400 mg, 0.50 hr): 144.1 ng/mL
Blood plasma concentration of propofol, Median (Oral 400 mg, 0.50 hr): 151.4 ng/mL
Blood plasma concentration of propofol, Mean (Oral 400 mg, 0.75 hr): 75.0 ng/mL
Blood plasma concentration of propofol, Median (Oral 400 mg, 0.75 hr): 71.1 ng/mL
Blood plasma concentration of propofol, Mean (Oral 400 mg, 1.0 hr): 53.2 ng/mL
Blood plasma concentration of propofol, Median (Oral 400 mg, 1.0 hr): 37.6 ng/mL
Blood plasma concentration of propofol, Mean (Oral 400 mg, 1.5 hr): 32.3 ng/mL
Blood plasma concentration of propofol, Median (Oral 400 mg, 1.5 hr): 22.8 ng/mL
Blood plasma concentration of propofol, Mean (Oral 400 mg, 2.0 hr): 19.0 ng/mL
Blood plasma concentration of propofol, Median (Oral 400 mg, 2.0 hr): 18.8 ng/mL
Blood plasma concentration of propofol, Mean (Oral 400 mg, 4.0 hr): 6.2 ng/mL
Blood plasma concentration of propofol, Median (Oral 400 mg, 4.0 hr): 6.6 ng/mL
Blood plasma concentration of propofol, Mean (Oral 400 mg, 6.0 hr): 0.9 ng/mL
Blood plasma concentration of propofol, Median (Oral 400 mg, 6.0 hr): 0.0 ng/mL
Blood plasma concentration of propofol, Mean (Oral 400 mg, 9.0 hr): 0.9 ng/mL
Blood plasma concentration of propofol, Median (Oral 400 mg, 9.0 hr): 0.0 ng/mL
plasma propofol after intraduodenal instillation compared to oral (in words) (intraduodenal 400 mg, human subjects): appreciably higher levels, and at earlier timepoints
plasma propofol after oral administration (in words) (oral 400 mg, human subjects): appreciable plasma concentrations of propofol
plasma propofol concentrations above the upper limit of quantification (some values from four of the subjects, second, third and fourth timepoints, 400 mg): > 400 ng/mL
